Laboratory results from ChEMBL document CHEMBL4823324, “Discovery of BMS-986318, a Potent Nonbile Acid FXR Agonist for the Treatment of Nonalcoholic Steatohepatitis” (ACS Med Chem Lett, 2021).

Tests used:
[1] = target: T1, Peroxisome proliferator-activated receptor gamma (Homo sapiens, UniProt P37231); assay: Activation of PPARgamma LBD (unknown origin) co-expressed with Gal4UAS-luciferase reporter in HEK293 cells incubated for 24 hrs by Steady-Glo luciferase reporter gene based luminescence analysis; format: cell-based
T1 sequence (P37231 whole entry): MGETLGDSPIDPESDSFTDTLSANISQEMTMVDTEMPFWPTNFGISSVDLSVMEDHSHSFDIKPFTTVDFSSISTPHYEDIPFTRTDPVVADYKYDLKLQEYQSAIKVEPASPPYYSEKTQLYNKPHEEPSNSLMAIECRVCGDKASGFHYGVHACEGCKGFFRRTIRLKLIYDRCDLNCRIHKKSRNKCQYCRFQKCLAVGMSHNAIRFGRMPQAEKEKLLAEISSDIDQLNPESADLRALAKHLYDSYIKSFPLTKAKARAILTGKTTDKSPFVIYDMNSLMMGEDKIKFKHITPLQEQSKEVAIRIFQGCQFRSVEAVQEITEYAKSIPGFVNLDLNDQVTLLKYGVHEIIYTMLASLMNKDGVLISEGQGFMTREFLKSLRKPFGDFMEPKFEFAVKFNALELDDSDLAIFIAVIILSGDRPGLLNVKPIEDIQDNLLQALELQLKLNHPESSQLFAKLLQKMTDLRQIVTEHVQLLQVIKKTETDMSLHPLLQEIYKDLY

[2] = target: T2, Glucocorticoid receptor (Homo sapiens, UniProt P04150); assay: Activation of glucocorticoid receptor (unknown origin) by fluorescence polarization based competition assay
T2 sequence (P04150 whole entry): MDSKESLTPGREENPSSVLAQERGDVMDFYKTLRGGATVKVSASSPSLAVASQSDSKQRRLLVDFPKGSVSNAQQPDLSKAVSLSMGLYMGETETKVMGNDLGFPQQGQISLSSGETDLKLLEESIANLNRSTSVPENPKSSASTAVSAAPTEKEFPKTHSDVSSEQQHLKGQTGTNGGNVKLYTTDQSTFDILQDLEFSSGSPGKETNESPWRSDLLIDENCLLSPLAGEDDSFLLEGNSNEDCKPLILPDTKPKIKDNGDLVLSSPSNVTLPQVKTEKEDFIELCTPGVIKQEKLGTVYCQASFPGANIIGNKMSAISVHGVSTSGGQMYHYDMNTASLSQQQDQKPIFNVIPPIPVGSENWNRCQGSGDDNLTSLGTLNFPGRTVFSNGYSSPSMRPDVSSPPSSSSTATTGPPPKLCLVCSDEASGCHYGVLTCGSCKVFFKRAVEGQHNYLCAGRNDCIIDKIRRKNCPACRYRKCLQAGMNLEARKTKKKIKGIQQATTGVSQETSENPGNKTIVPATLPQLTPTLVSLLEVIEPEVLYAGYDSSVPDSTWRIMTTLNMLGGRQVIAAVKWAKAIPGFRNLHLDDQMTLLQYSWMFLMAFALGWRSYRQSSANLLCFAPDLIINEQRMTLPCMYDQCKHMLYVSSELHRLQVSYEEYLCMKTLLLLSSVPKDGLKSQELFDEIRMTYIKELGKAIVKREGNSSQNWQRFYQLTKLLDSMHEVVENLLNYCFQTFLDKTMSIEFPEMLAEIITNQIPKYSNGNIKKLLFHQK

[3] = Oral bioavailability in C57B6 mouse at 2 mg/kg administered as solution; format: ADME, organism-based; conditions: in vivo
[4] = target: T3, Oxysterols receptor LXR-beta (Homo sapiens, UniProt P55055); assay: Activation of human LXRbeta co-expressed with TK-luciferase reporter in African green monkey CV-1 cells incubated for overnight by Steady-Glo luciferase reporter gene based luminescence analysis; format: cell-based
T3 sequence (P55055 whole entry): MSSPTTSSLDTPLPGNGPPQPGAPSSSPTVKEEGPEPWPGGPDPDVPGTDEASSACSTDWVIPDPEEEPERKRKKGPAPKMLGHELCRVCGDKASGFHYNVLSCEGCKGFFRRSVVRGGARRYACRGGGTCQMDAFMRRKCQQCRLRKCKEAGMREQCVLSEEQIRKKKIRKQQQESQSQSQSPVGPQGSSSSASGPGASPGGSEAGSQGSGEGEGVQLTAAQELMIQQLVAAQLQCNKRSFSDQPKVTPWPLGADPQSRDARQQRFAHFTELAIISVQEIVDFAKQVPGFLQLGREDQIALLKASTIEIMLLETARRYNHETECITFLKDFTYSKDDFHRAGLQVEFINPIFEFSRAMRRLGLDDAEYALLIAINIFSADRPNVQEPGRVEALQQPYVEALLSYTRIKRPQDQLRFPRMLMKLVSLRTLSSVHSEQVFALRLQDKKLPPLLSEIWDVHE

[5] = AUC in C57B6 mouse at 1 mg/kg, iv; format: ADME, organism-based; design: dose 1 mg/kg; conditions: in vivo
[6] = Cmax in C57B6 mouse at 2 mg/kg, po administered as suspension; format: ADME, organism-based; design: route oral, dose 2 mg/kg; conditions: in vivo
[7] = Half life in C57B6 mouse at 2 mg/kg, po administered as solution; format: ADME, organism-based; conditions: in vivo
[8] = Volume of distribution at steady state in C57B6 mouse at 1 mg/kg, iv; format: ADME, organism-based; conditions: in vivo, read-out: Vdss
[9] = target: T4, Estrogen receptor (Homo sapiens, UniProt P03372); assay: Activation of estrogen receptor alpha (unknown origin) by fluorescence polarization based competition assay
T4 sequence (P03372 whole entry): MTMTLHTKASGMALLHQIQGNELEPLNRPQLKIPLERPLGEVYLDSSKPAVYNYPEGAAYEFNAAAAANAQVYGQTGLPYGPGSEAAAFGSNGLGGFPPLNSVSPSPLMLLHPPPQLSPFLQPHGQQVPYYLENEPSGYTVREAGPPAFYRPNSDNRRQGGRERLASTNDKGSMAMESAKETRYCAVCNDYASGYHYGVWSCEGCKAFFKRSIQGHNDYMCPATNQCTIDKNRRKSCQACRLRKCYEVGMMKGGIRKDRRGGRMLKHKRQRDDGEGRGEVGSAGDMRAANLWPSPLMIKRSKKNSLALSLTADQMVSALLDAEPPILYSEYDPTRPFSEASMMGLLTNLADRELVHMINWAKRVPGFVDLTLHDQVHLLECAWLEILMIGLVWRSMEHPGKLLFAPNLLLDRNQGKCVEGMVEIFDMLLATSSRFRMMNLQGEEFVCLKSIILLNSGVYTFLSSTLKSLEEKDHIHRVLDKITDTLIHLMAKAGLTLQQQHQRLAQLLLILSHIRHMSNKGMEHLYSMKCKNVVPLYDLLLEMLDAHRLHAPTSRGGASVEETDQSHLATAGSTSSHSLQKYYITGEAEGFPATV

[10] = Cmax in C57B6 mouse at 2 mg/kg, po administered as solution; format: ADME, organism-based; design: route oral, dose 2 mg/kg; conditions: in vivo
[11] = Half life in C57B6 mouse at 2 mg/kg, po administered as suspension; format: ADME, organism-based; conditions: in vivo
[12] = Metabolic stability in mouse liver microsomes assessed as half life; format: ADME, Microsome
[13] = Cmax in C57B6 mouse at 1 mg/kg, iv; format: ADME, organism-based; design: route intravenous, dose 1 mg/kg; conditions: in vivo
[14] = Plasma protein binding in C57B6 mouse assessed as unbound fraction at 1 mg/kg, iv; format: ADME, organism-based; conditions: in vivo

- EC50 [1]: > 40 µM
- EC50 [2]: > 40 µM
- bioavailability [3]: 36%
- EC50 [4]: > 40 µM
- AUC [5]: 9.32 µM·h
- Cmax [6]: 1030 nM
- half-life [7]: 2.3 h
- Vd [8]: 0.56 L/kg
- EC50 [9]: > 40 µM
- Cmax [10]: 1220 nM
- half-life [11]: 2 h
- half-life [12]: > 2 h
- Cmax [13]: 1490 nM
- Fu [14]: < 0.01%
SMILES: O=C(O)c1cc(C(F)(F)F)c2cc(N3CCC4(C=C(c5c(-c6c(Cl)cncc6Cl)noc5C5CC5)C4)CC3)ccc2n1
